This note sets out measurements from US20240246942A1, “KINASE INHIBITORS FOR THE TREATMENT OF NEURODEGENERATIVE DISEASES” (priority 2020, published 2024).

Experiment in all cases: biochemical
Experiment [1] concerns the target T1, panel of 374 wild-type kinases (Homo sapiens, UniProt O75460).
T1 construct: purchased Reaction Biology Corporation
The note with it: read-out: % Enzyme Activity (relative to DMSO controls), ERN1/IRE1.

Experiment [2] deals with T2, panel of 374 wild-type kinases (Homo sapiens, UniProt P42685).
T2 construct: purchased Reaction Biology Corporation
The note with it: read-out: % Enzyme Activity (relative to DMSO controls), FRK/PTK5.

Experiment [3] addresses T3, panel of 374 wild-type kinases (Homo sapiens, UniProt Q07912).
T3 construct: purchased Reaction Biology Corporation
The note with it: read-out: % Enzyme Activity (relative to DMSO controls), ACK1.

For experiment [4], the target named is T4, panel of 374 wild-type kinases (Homo sapiens, UniProt Q13163).
T4 construct: purchased Reaction Biology Corporation
T4 sequence (Q13163 1-448): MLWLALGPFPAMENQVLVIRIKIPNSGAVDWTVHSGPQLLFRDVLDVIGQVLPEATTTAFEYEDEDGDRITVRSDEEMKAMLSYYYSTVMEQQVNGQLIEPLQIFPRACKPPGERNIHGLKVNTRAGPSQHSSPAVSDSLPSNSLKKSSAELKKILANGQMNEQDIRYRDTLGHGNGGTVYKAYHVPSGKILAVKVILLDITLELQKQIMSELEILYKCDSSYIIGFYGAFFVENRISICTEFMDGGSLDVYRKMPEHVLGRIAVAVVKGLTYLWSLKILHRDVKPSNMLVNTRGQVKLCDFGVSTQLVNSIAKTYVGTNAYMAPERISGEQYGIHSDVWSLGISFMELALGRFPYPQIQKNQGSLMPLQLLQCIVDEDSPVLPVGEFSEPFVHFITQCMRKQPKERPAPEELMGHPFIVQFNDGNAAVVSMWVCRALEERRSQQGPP
The conditions noted are these: read-out: % Enzyme Activity (relative to DMSO controls), MEK5.

Experiment [5] deals with T5, panel of 374 wild-type kinases (Homo sapiens, UniProt Q52WX2).
T5 construct: purchased Reaction Biology Corporation
The conditions noted are these: read-out: % Enzyme Activity (relative to DMSO controls), kinase SBK1.

Experiment [6] addresses T6, panel of 374 wild-type kinases (Homo sapiens, UniProt Q96GX5).
T6 construct: purchased Reaction Biology Corporation
T6 sequence (Q96GX5 1-879): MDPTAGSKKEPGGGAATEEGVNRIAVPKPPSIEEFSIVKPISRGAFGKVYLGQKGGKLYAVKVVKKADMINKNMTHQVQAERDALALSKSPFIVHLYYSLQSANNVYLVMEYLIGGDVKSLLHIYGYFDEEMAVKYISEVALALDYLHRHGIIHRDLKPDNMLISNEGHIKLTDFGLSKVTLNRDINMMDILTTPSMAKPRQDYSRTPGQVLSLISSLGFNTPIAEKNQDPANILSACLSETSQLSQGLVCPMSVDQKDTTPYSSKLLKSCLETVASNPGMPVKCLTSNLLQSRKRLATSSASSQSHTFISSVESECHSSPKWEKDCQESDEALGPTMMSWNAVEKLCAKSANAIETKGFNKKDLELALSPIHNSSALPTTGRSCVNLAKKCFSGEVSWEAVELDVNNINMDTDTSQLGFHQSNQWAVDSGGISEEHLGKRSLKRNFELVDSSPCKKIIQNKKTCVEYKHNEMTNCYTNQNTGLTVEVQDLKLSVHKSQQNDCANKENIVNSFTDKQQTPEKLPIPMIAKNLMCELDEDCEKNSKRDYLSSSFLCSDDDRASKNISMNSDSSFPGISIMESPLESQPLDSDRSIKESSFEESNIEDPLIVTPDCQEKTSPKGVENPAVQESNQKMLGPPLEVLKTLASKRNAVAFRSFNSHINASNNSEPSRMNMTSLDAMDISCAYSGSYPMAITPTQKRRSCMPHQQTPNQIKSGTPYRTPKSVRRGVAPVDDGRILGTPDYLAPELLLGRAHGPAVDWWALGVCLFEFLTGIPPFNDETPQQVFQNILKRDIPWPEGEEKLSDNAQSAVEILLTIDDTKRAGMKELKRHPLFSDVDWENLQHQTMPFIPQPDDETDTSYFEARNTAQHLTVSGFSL
The conditions noted are these: MASTL, read-out: % Enzyme Activity (relative to DMSO controls).

Experiment [7] addresses T7, panel of 374 wild-type kinases (Homo sapiens, UniProt Q96KB5).
T7 construct: purchased Reaction Biology Corporation
T7 sequence (Q96KB5 1-322): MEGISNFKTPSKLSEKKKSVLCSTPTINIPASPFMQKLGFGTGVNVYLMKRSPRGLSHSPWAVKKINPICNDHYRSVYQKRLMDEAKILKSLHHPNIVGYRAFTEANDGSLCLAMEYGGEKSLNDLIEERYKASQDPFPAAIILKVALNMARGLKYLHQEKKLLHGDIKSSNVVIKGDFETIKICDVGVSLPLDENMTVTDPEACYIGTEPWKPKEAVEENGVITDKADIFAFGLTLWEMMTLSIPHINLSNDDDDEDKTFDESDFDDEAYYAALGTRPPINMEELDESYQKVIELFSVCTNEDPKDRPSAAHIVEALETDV
The conditions noted are these: read-out: % Enzyme Activity (relative to DMSO controls), kinase PBK/TOPK.

In experiment [8] the target is T8, panel of 374 wild-type kinases (Homo sapiens, UniProt Q9UPZ9).
T8 construct: purchased Reaction Biology Corporation
T8 sequence (Q9UPZ9 1-632): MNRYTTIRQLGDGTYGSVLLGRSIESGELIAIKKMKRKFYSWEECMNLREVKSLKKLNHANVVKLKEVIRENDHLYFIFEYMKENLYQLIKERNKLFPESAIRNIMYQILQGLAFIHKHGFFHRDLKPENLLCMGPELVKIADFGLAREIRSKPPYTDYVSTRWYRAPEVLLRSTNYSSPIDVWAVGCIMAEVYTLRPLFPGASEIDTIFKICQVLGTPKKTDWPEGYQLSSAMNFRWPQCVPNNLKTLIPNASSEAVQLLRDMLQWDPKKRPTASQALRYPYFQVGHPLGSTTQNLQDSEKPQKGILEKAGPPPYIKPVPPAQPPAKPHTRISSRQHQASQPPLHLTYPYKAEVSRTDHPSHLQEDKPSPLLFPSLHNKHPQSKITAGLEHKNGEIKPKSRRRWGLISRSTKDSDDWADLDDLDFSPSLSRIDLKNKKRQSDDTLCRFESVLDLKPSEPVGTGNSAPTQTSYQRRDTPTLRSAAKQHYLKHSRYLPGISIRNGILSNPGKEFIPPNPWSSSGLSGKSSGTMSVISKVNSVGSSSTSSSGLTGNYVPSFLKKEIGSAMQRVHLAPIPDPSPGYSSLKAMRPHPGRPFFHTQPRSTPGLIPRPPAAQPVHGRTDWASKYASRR
The conditions noted are these: read-out: % Enzyme Activity (relative to DMSO controls), LCK2/ICK.

T1 sequence (O75460 19-977): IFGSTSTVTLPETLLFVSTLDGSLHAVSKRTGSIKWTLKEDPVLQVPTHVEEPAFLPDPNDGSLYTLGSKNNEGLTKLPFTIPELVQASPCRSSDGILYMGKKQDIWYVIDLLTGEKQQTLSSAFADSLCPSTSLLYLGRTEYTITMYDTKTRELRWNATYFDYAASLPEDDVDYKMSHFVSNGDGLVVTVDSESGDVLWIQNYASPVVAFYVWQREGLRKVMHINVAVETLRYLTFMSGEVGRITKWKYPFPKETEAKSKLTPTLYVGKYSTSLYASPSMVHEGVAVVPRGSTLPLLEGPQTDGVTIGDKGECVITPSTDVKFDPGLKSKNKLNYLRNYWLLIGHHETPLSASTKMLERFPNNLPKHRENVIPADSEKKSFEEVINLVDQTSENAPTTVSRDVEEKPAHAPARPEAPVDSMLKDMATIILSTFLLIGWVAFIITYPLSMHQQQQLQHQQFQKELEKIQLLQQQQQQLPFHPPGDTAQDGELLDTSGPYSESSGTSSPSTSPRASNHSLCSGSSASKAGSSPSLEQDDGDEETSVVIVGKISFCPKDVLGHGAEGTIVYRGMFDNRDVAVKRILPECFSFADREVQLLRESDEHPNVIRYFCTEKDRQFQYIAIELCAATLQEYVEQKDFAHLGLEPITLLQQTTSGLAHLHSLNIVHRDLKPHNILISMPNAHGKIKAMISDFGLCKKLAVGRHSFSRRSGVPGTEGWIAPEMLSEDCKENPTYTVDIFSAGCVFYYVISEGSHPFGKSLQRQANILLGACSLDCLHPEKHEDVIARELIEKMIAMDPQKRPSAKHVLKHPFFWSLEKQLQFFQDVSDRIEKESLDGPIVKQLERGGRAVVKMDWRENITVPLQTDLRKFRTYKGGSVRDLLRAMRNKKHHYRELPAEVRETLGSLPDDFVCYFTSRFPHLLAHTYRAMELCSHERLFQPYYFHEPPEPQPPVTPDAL
T2 sequence (P42685 whole entry): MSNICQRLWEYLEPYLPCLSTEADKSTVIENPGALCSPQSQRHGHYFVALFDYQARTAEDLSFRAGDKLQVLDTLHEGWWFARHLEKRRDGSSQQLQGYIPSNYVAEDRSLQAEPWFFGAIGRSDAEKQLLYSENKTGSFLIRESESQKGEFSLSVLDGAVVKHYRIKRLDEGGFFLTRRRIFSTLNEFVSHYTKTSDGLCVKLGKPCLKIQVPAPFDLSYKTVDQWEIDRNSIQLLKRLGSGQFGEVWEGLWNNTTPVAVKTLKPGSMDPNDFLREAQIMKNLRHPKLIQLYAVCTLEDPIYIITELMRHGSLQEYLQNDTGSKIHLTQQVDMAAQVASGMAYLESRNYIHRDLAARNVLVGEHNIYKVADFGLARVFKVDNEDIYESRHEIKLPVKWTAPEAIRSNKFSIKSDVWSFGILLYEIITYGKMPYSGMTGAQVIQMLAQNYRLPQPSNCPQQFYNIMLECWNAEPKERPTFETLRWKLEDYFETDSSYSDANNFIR
T5 sequence (Q52WX2 whole entry): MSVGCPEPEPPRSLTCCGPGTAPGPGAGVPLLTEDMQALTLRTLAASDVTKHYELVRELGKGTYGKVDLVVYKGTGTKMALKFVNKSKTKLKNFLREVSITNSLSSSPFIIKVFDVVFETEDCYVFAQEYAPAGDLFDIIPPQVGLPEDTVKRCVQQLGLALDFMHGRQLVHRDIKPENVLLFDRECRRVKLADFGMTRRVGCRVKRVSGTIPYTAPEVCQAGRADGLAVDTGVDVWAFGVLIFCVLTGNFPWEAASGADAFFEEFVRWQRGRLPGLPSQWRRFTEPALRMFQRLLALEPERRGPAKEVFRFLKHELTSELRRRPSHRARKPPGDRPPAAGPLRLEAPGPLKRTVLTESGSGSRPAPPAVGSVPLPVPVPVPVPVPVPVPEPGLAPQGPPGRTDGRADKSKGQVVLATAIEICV
T3 sequence (Q07912 whole entry): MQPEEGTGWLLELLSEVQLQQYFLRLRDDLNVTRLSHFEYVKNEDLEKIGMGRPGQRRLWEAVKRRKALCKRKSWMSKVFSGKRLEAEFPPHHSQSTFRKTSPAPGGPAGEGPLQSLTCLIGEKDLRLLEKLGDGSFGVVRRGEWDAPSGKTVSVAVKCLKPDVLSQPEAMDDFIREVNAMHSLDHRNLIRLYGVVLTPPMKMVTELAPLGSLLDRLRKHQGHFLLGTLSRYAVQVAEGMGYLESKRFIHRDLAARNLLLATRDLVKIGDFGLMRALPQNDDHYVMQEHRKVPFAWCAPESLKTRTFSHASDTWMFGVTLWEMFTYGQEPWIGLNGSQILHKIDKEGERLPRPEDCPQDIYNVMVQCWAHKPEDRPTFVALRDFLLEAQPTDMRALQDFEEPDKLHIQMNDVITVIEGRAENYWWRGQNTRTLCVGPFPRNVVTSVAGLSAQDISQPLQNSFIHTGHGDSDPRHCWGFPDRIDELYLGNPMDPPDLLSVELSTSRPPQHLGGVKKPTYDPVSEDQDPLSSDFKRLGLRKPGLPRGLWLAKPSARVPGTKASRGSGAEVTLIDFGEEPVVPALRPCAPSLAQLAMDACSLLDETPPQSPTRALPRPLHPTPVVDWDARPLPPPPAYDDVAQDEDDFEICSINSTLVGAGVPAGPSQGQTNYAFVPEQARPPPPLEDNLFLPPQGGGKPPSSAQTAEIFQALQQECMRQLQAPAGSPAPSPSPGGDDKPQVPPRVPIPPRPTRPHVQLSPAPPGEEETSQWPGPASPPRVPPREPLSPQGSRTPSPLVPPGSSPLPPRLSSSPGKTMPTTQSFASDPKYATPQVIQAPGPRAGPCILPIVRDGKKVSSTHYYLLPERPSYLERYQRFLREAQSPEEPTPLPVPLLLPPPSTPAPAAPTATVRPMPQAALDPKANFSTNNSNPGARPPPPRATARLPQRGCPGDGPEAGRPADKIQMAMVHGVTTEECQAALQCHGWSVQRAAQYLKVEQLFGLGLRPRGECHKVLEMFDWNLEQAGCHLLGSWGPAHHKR

For the molecule `O=C(Nc1cnn(-c2csc(C(=O)NC3COC3)c2)c1)Nc1ccccc1Cl` [Compound 17, 4-(4-(3-(2-chlorophenyl)ureido)-1H-pyrazol-1-yl)-N-(oxetan-3-yl)thiophene-2-carboxamide], the remaining activity at 5 µM came out at 94.3% in experiment [1]; 97.4% in experiment [2]; 85.6% in experiment [3]; 98.2% in experiment [4]; 99.1% in experiment [5]; 96.7% in experiment [6]. In addition, the remaining activity at 5 µM in experiment [7] was determined as 115%; in experiment [8] it was 112%.

Regarding `O=C(Nc1cnn(-c2csc(C(=O)NC3COC3)c2)c1)Nc1c(F)cccc1Cl` [Compound 25, 4-(4-(3-(2-chloro-6-fluorophenyl)ureido)-1H-pyrazol-1-yl)-N-(oxetan-3-yl)thiophene-2-carboxamide], the remaining activity at 5 µM in experiment [1] was found to be 95.8%; in experiment [2], 95.6%; in experiment [3], 94.6%; in experiment [4], 103%; in experiment [5] it was 97.7%; in experiment [6], 93.7%. The remaining activity at 5 µM in experiment [7] worked out at 98.2%; in experiment [8], 101%.

Turning to `Cc1sc(C(=O)NC2COC2)cc1-n1cc(NC(=O)Nc2c(F)cccc2Cl)cn1` [Compound 27, 4-(4-(3-(2-chloro-6-fluorophenyl)ureido)-1H-pyrazol-1-yl)-5-methyl-N-(oxetan-3-yl)thiophene-2-carboxamide], the remaining activity at 10 µM in experiment [1] (10 uM) was determined as 94.1%; in experiment [2] (10 uM), 87.3%; in experiment [3] (10 uM), 106%; in experiment [4] (10 uM), 96.8%; in experiment [5] (10 uM) it was 87.5%; in experiment [6] (10 uM), 110%. For the same molecule, the remaining activity at 10 µM in experiment [7] (10 uM) worked out at 88.5%; in experiment [8] (10 uM), 100%.
